Structures can show the parent of a compound that is named as a salt.
molecular target: T1, G9a (Homo sapiens, UniProt Q96KQ7); test: G9a AlphaLISA enzymatic activity assay; assay type: biochemical; settings: negative log of IC50 in molar, 0.15 nM G9a, 15 uM S-adenosyl-methionine, 100 nM biotinylated histone 3 peptide (1-21)
T1 sequence (Q96KQ7 1-1210): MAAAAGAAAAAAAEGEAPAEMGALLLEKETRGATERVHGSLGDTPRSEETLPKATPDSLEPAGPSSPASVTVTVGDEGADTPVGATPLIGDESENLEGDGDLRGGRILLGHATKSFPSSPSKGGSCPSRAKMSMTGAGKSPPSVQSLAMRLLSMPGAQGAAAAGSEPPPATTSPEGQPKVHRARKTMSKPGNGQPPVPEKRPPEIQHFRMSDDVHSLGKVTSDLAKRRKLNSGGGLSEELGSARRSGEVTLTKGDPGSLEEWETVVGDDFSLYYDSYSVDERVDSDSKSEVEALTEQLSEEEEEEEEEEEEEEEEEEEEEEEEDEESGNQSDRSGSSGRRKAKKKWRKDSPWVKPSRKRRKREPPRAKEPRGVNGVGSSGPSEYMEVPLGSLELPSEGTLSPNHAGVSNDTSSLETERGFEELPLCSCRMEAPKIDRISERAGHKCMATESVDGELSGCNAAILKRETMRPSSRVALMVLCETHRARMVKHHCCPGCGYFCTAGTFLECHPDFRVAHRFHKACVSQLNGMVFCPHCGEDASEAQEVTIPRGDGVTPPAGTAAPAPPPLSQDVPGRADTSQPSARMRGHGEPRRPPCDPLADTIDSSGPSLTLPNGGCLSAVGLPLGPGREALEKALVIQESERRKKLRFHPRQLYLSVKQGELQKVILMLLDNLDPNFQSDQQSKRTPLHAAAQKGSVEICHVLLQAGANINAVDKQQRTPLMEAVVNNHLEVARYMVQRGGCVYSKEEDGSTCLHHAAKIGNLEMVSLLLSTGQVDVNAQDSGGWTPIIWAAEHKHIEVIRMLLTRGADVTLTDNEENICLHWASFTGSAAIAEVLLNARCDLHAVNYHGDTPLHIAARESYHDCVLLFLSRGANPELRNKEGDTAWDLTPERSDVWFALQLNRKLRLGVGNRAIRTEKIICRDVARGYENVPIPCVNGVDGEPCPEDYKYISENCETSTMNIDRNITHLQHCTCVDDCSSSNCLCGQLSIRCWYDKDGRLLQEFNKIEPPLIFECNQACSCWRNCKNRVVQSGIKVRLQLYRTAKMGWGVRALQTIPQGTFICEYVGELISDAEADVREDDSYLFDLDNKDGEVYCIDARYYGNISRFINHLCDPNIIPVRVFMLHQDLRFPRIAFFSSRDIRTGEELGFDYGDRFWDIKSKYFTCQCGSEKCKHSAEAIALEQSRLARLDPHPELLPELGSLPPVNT
Source text: The G9a AlphaLISA assay was used to detect the methyl modifications of a biotinylated histone H3 peptide by the compounds. These modifications are done by the histone methyl transferase activity of the G9a enzyme. The assay consists of reading a chemiluminescent signal at 615 nm; this signal is generated by a laser excitation at 680 nm that transfers a reactive singlet oxygen between the donor beads and acceptor beads. Donor beads are streptavidin conjugated and bind to the biotin on the peptide. Acceptor beads are conjugated with an antibody that recognizes the specific G9a methyl mark on the peptide. If there is a methyl mark on the peptide, the acceptor beads will bind to the peptide. Upon binding, the acceptor beads will be in close proximity (<200 nm) of the donor beads and when the donor beads are excited, the transfer of the oxygen can occur and a strong signal will be generated. If there is no methyl mark, the interaction between beads will not occur and signal will be at background levels.
For the assay, the following buffer was used to set up reactions: 50 mM Tris-HCl pH9, 50 mM NaCl, 0.01% Tween-20 and 1 mM DTT (added fresh prior to starting the reactions). […] The reaction is incubated at rt for 1 hour and subsequently quenched by the addition of the acceptor beads (anti-H3k9me2 AlphaLISA acceptor beads, PerkinElmer #AL117) at a final concentration of 20 ug/mL. The acceptor beads are incubated for 1 hour. After 1 hour, the donor beads are added at a final concentration of 20 ug/mL (Alpha Streptavidin donor beads, PerkinElmer #6760002). Donor beads are incubated for 0.5 hours. Both donor and acceptor beads are resuspended in AlphaLISA 5X Epigenetics Buffer 1 Kit (PerkinElmer #AL008) prior to addition to the reaction. All manipulations and incubations with the donor and acceptor beads are done in subdued light. Signal is detected in an EnVision plate reader in Alpha mode. See ACS Med Chem Lett. 2014; 5(2):205-9.
Percent inhibition was calculated for each compound dilution and the concentration that produced 50% inhibition was calculated. This value is presented as the pIC50, which is the negative log of the IC50 value in molar.

Compared with `Oc1cc2c(NCC3CC3)c3c(nc2cc1OCCCN1CCCC1)CCC3` [Example 2, dihydrochloride], `COc1cc2c(NC[C@H]3CCOC3)c3c(nc2cc1OCCCN1CCCC1)CCC3` [Example 28, 7-methoxy-N-{[(3R)-oxolan-3-yl]methyl}-6-[3-(pyrrolidin-1-yl)propoxy]-1H,2H,3H-cyclopenta[b]quinolin-9-amine] is 16-fold lower in IC50: 158 nM for the first, 10 nM for the second. The second is the more potent here.

First: COC[C@H](C)Nc1c2c(nc3cc(OCCCN4CCCC4)c(OC)cc13)CCC2 [Example 4]
Second: COc1cc2c(NC[C@@H](C)OC)c3c(nc2cc1OCCCN1CCCC1)CCC3 [Example 14, 7-methoxy-N-[(2R)-2-methoxypropyl]-6-[3-(pyrrolidin-1-yl)propoxy]-1H,2H,3H-cyclopenta[b]quinolin-9-amine]
The IC50 of the first is 4.3-fold lower: 6.17 nM for the first, 26.3 nM for the second. The first is the more potent here.

Going from `CCNc1c2c(nc3cc(OCCCN4CCCC4)c(OC)cc13)CC(C)(C)C2` [Example 6, N-ethyl-7-methoxy-2,2-dimethyl-6-[3-(pyrrolidin-1-yl)propoxy]-1H,2H,3H-cyclopenta[b]quinolin-9-amine] to `CNc1c2c(nc3cc(OCCCN4CCCC4)c(OC)cc13)CC(C)(C)C2` [Example 24, 7-methoxy-N,2,2-trimethyl-6-[3-(pyrrolidin-1-yl)propoxy]-1H,2H,3H-cyclopenta[b]quinolin-9-amine], the IC50 falls from 38 nM to 24 nM (1.6-fold).

Compared with `COc1cc2c(NC(C)C)c3c(nc2cc1OCCCN1CCCC1)CC(C)(C)C3` [Example 7, 7-methoxy-2,2-dimethyl-N-(propan-2-yl)-6-[3-(pyrrolidin-1-yl)propoxy]-1H,2H,3H-cyclopenta[b]quinolin-9-amine], `COc1cc2c(NC(C)C)c3c(nc2cc1OCCCN1CCCC1)CCC3(C)C` [Example 22, 7-methoxy-1,1-dimethyl-N-(propan-2-yl)-6-[3-(pyrrolidin-1-yl)propoxy]-1H,2H,3H-cyclopenta[b]quinolin-9-amine] is 5.6-fold higher in IC50: 30.9 nM for the first, 174 nM for the second.

Compared with `COCCNc1c2c(nc3cc(OCCCN4CCCC4)c(OC)cc13)CC(C)(C)C2` [Example 8, 7-methoxy-N-(2-methoxyethyl)-2,2-dimethyl-6-[3-(pyrrolidin-1-yl)propoxy]-1H,2H,3H-cyclopenta[b]quinolin-9-amine], `COCCNc1c2c(nc3cc(OCCCN4CCCC4)c(OC)cc13)CCC2(C)C` [Example 23, 7-methoxy-N-(2-methoxyethyl)-1,1-dimethyl-6-[3-(pyrrolidin-1-yl)propoxy]-1H,2H,3H-cyclopenta[b]quinolin-9-amine] is 9.1-fold higher in IC50: 51.3 nM for the first, 468 nM for the second.

Compared with `COc1cc2c(NCc3ccn[nH]3)c3c(nc2cc1OCCCN1CCCC1)CCC3` [Example 9, 7-methoxy-N-[(1H-pyrazol-5-yl)methyl]-6-[3-(pyrrolidin-1-yl)propoxy]-1H,2H,3H-cyclopenta[b]quinolin-9-amine], `CCOCCNc1c2c(nc3cc(OCCCN4CCCC4)c(OC)cc13)CCC2` [Example 10, N-(2-ethoxyethyl)-7-methoxy-6-[3-(pyrrolidin-1-yl)propoxy]-1H,2H,3H-cyclopenta[b]quinolin-9-amine] is 1.9-fold lower in IC50: 12 nM for the first, 6.31 nM for the second. The second is the more potent here.

Going from `CCOCCCNc1c2c(nc3cc(OCCCN4CCCC4)c(OC)cc13)CCC2` [Example 11, N-(3-ethoxypropyl)-7-methoxy-6-[3-(pyrrolidin-1-yl)propoxy]-1H,2H,3H-cyclopenta[b]quinolin-9-amine] to `CCCOCCCNc1c2c(nc3cc(OCCCN4CCCC4)c(OC)cc13)CCC2` [Example 12, 7-methoxy-N-(3-propoxypropyl)-6-[3-(pyrrolidin-1-yl)propoxy]-1H,2H,3H-cyclopenta[b]quinolin-9-amine], the IC50 falls from 17.4 nM to 8.32 nM (2.1-fold).

Compared with `COc1cc2c(NCCOC(C)C)c3c(nc2cc1OCCCN1CCCC1)CCC3` [Example 13, 7-methoxy-N-[2-(propan-2-yloxy)ethyl]-6-[3-(pyrrolidin-1-yl)propoxy]-1H,2H,3H-cyclopenta[b]quinolin-9-amine], `COc1cc2c(NCCCOC(C)C)c3c(nc2cc1OCCCN1CCCC1)CCC3` [Example 17, 7-methoxy-N-[3-(propan-2-yloxy)propyl]-6-[3-(pyrrolidin-1-yl)propoxy]-1H,2H,3H-cyclopenta[b]quinolin-9-amine] is 1.6-fold lower in IC50: 31.6 nM for the first, 19.5 nM for the second. The second is the more potent here.

Going from `COc1cc2c(NC[C@H](C)OC)c3c(nc2cc1OCCCN1CCCC1)CCC3` [Example 15, 7-methoxy-N-[(2S)-2-methoxypropyl]-6-[3-(pyrrolidin-1-yl)propoxy]-1H,2H,3H-cyclopenta[b]quinolin-9-amine] to `CCCOCCNc1c2c(nc3cc(OCCCN4CCCC4)c(OC)cc13)CCC2` [Example 16, 7-methoxy-N-(2-propoxyethyl)-6-[3-(pyrrolidin-1-yl)propoxy]-1H,2H,3H-cyclopenta[b]quinolin-9-amine], the IC50 rises from 22.4 nM to 37.2 nM (1.7-fold). The first is the more potent here.

`COc1cc2c(NC[C@H]3CCCO3)c3c(nc2cc1OCCCN1CCCC1)CCC3` [Example 18, 7-methoxy-N-{[(2R)-oxolan-2-yl]methyl}-6-[3-(pyrrolidin-1-yl)propoxy]-1H,2H,3H-cyclopenta[b]quinolin-9-amine] and `COc1cc2c(NC[C@@H]3CCCO3)c3c(nc2cc1OCCCN1CCCC1)CCC3` [Example 25, 7-methoxy-N-{[(2S)-oxolan-2-yl]methyl}-6-[3-(pyrrolidin-1-yl)propoxy]-1H,2H,3H-cyclopenta[b]quinolin-9-amine] are within 1.5-fold of each other in IC50: 21.9 nM for the first, 15.5 nM for the second.

`CNc1c2c(nc3cc(OCCCN4CCCC4)c(OC)cc13)CCCCC2` [Example 19, 2-methoxy-N-methyl-3-[3-(pyrrolidin-1-yl)propoxy]-6H,7H,8H,9H,10H-cyclohepta[b]quinolin-11-amine] and `COc1cc2c(NC[C@@H]3CCOC3)c3c(nc2cc1OCCCN1CCCC1)CCC3` [Example 29, 7-methoxy-N-{[(3S)-oxolan-3-yl]methyl}-6-[3-(pyrrolidin-1-yl)propoxy]-1H,2H,3H-cyclopenta[b]quinolin-9-amine] are within 1.5-fold of each other in IC50: 7.94 nM for the first, 6.03 nM for the second.

`CNc1c2c(nc3cc(OCCCN4CCCC4)c(OC)cc13)CCC2(C)C` [Example 20, 7-methoxy-N,1,1-trimethyl-6-[3-(pyrrolidin-1-yl)propoxy]-1H,2H,3H-cyclopenta[b]quinolin-9-amine] and `CCNc1c2c(nc3cc(OCCCN4CCCC4)c(OC)cc13)CCC2(C)C` [Example 21, N-ethyl-7-methoxy-1,1-dimethyl-6-[3-(pyrrolidin-1-yl)propoxy]-1H,2H,3H-cyclopenta[b]quinolin-9-amine] are within 1.5-fold of each other in IC50: 72.4 nM for the first, 83.2 nM for the second.

`COc1cc2c(NC[C@@H]3COCCO3)c3c(nc2cc1OCCCN1CCCC1)CCC3` [Example 26, N-{[(2R)-1,4-dioxan-2-yl]methyl}-7-methoxy-6-[3-(pyrrolidin-1-yl)propoxy]-1H,2H,3H-cyclopenta[b]quinolin-9-amine] and `COc1cc2c(NC[C@H]3COCCO3)c3c(nc2cc1OCCCN1CCCC1)CCC3` [Example 27, N-{[(2S)-1,4-dioxan-2-yl]methyl}-7-methoxy-6-[3-(pyrrolidin-1-yl)propoxy]-1H,2H,3H-cyclopenta[b]quinolin-9-amine] are within 1.5-fold of each other in IC50: 11.2 nM for the first, 12.6 nM for the second.
